Several values for one entry are separate records, joined by “and”; a condition that tells them apart may be missing. Equal values may be shown once.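 Five concentrations, 48 hours, 96-well plates. Here, GI50 denotes the concentration required for 50% inhibition of growth. TGI marks complete inhibition of growth.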
Tested on: K-562 leukemia
Assay: DTP human tumour cell line panel, 48 h

Compound | TGI | GI50 [µM]
CCCCCC#CCOC(=O)C(=[N+]=[N-])P(=O)(c1ccccc1)c1ccccc1 | > 10 µM | 
COc1ccc(C(=O)/C=C/c2ccc(OCCCOc3ccc(/C=C/C(=O)c4ccc(OC)cc4)cc3)cc2)cc1 | > 100 µM | 
CCOc1cc(/C=C2/C(C)=NN(c3cccc(Cl)c3)/C2=N/c2nc3ccccc3s2)ccc1O | > 100 µM | 
O=C(O)COc1ccccc1C(=O)Nc1ccccc1 | > 100 µM | 
COc1ccc(C2c3cn[nH]c3CC3CCCCC32)cc1 (stereo not drawn) | 98.6 µM | 
O=C1CC2(CCC(O)(c3ccc4ccccc4c3)C(C(=O)c3ccc4ccccc4c3)C2)C(=O)c2ccccc2N1 (stereo not drawn) | > 100 µM | 
COc1ccc(C2OC(c3ccncc3)=NN2C)cc1F (stereo not drawn) | > 100 µM | 
COc1cc2c(cc1OC)C(C(c1ccccc1)c1ccccc1)N(C)CC2 (stereo not drawn) | > 100 µM | 
CCOC(=O)N1CCC(N[C@@H]2c3cc4c(cc3C(c3cc(OC)c(O)c(OC)c3)C3C(=O)OC[C@@H]32)OCO4)CC1 (stereo partly drawn) | 22.4 µM and > 25 µM | 
C[N+](C)([O-])CCOc1cc2c(c3ccccc13)-c1ccccc1C2=O | > 95.2 µM | 
CCOC(=O)C1S/C(=N\C(=N)N[N+](=O)[O-])N=C1C (stereo not drawn) | > 100 µM | 
NS(=O)(=O)c1ccc(NC(=S)/N=C/C2=C(O)c3ccccc3C2=O)cc1 | > 100 µM | 
O=C1NC2c3c(I)sc(I)c3C(O)C2O1 (stereo not drawn) | > 100 µM | 
S=C1NC2=C(CSC/C2=C\c2cccc(Br)c2)C(c2cccc(Br)c2)N1 (stereo not drawn) | > 100 µM | 
Clc1ccc(-c2nnc3sc4nc5ccccc5c-4nn23)c(Cl)c1 | > 100 µM | 
CCCCCCCCCCCCCCCCNc1cccc2ccccc12 | > 100 µM | 
C=C(C(=O)OCC)C(=O)OCC | > 100 µM | 
O=C1OCC/C1=N/O | > 100 µM | 
CC(O)CNC(=O)C(C)Oc1ccc(OCC2CCCCC2)cc1 (stereo not drawn) | > 100 µM | 
CSC1=N/C(=C\c2ccc(C)cc2)C(=O)N1CN1CCCCC1 | > 100 µM | 
Cc1ccc(S(=O)(=O)n2c3c(c4ccccc42)CCN2C[C@H]([C@H](C)Br)CC[C@@H]32)cc1 | > 100 µM | 
C[n+]1c(/C=C/c2c(O)ccc3ccccc23)ccc2ccccc21 | 13.4 µM | 2.22
CCCNc1ncnc2c1ncn2C | > 100 µM | 
CCOC(=O)c1c(-c2ccc(O)c(OC)c2)c(C#N)c(=S)n(C2OC(CO)C(O)C(O)C2O)c1-c1ccccc1 (stereo not drawn) | > 100 µM | 
C=C1CC(C#N)(C#N)[C@H]2C3CCCC3C[C@@H]12 (stereo partly drawn) (tested in a mixture with another compound) | 82.8 µM | 

Tested on: NCI/ADR-RES ovarian
Assay: DTP human tumour cell line panel, 48 h

Compound | TGI [µM] | GI50 [µM]
C=C1C(=O)CC2C1CC(=O)/C(C)=C/CCC(C)(O)C2O (stereo not drawn) | 28.3 | 
O=C(O)c1ccccc1CC(Cc1ccc2c(c1)CCC2)C(=O)O (stereo not drawn) | > 100 | 
Cn1c(SCc2ccc(F)cc2)nnc1C12CC3CC(CC(C3)C1)C2 | > 100 | 
COc1ccc(C(=O)/C=C/c2ccc(OCCCOc3ccc(/C=C/C(=O)c4ccc(OC)cc4)cc3)cc2)cc1 | > 100 | 
CCOc1cc(/C=C2/C(C)=NN(c3cccc(Cl)c3)/C2=N/c2nc3ccccc3s2)ccc1O | 55.9 | 
O=C1CC2(CCC(O)(c3ccc4ccccc4c3)C(C(=O)c3ccc4ccccc4c3)C2)C(=O)c2ccccc2N1 (stereo not drawn) | > 100 | 
COc1ccc(C2OC(c3ccncc3)=NN2C)cc1F (stereo not drawn) | > 100 | 
COc1cc2c(cc1OC)C(C(c1ccccc1)c1ccccc1)N(C)CC2 (stereo not drawn) | > 100 | 
C[N+](C)([O-])CCOc1cc2c(c3ccccc13)-c1ccccc1C2=O | > 100 | 
O=C1NC2c3c(I)sc(I)c3C(O)C2O1 (stereo not drawn) | > 100 | 
Cc1nc(C)c(C(=O)NNC(=O)C[N+](C)(C)C)cc1C(=O)NNC(=O)C[N+](C)(C)C | > 100 | 
S=C1NC2=C(CSC/C2=C\c2cccc(Br)c2)C(c2cccc(Br)c2)N1 (stereo not drawn) | > 100 | 
Clc1ccc(-c2nnc3sc4nc5ccccc5c-4nn23)c(Cl)c1 | > 100 | 
CSC1=N/C(=C\c2ccc(C)cc2)C(=O)N1CN1CCCCC1 | > 100 | 
Cc1ccc(S(=O)(=O)n2c3c(c4ccccc42)CCN2C[C@H]([C@H](C)Br)CC[C@@H]32)cc1 | > 100 | 
C[n+]1c(/C=C/c2c(O)ccc3ccccc23)ccc2ccccc21 | 14.5 | 5.64
Cc1c(/C=N\NC(=S)NCCNC(=S)N/N=C\c2c(C)n(C)n(-c3ccccc3)c2=O)c(=O)n(-c2ccccc2)n1C | > 100 | 
O=P(O)(O)C(N=C(Nc1ccccc1)Nc1ccccc1)P(=O)(O)O | > 100 | 
CCCNc1ncnc2c1ncn2C | > 100 | 
CCOC(=O)c1c(-c2ccc(O)c(OC)c2)c(C#N)c(=S)n(C2OC(CO)C(O)C(O)C2O)c1-c1ccccc1 (stereo not drawn) | > 100 | 
C=C1CC(C#N)(C#N)[C@H]2C3CCCC3C[C@@H]12 (stereo partly drawn) (tested in a mixture with another compound) | 48.2 | 

Tested on: RPMI-8226 leukemia
Assay: DTP human tumour cell line panel, 48 h

Compound | TGI | GI50
C=C1C(=O)CC2C1CC(=O)/C(C)=C/CCC(C)(O)C2O (stereo not drawn) | > 37.9 µM | 
O=C1C=C/C(=N\N=C(c2ccccc2)c2ccccc2)O1 | > 10 µM | 
Cc1ccc(/C=N\NC2c3cc(Cl)ccc3Nc3nc(=O)[nH]c(C)c32)cc1 (stereo not drawn) | > 100 µM | 
CC(=O)NC1C(OCc2ccccc2)OC(CO)C(O)C1OCC(=O)N[C@@H](C)C(=O)N[C@H](CCC(=O)NCCCNc1c2ccccc2nc2cccc([N+](=O)[O-])c12)C(N)=O (stereo partly drawn) | 0.242 µM | 
O=C(O)c1ccccc1CC(Cc1ccc2c(c1)CCC2)C(=O)O (stereo not drawn) | > 100 µM | 
Cn1c(SCc2ccc(F)cc2)nnc1C12CC3CC(CC(C3)C1)C2 | 82.5 µM | 
CCCCCC#CCOC(=O)C(=[N+]=[N-])P(=O)(c1ccccc1)c1ccccc1 | > 10 µM | 
COc1ccc(C(=O)/C=C/c2ccc(OCCCOc3ccc(/C=C/C(=O)c4ccc(OC)cc4)cc3)cc2)cc1 | > 100 µM | 
CCOc1cc(/C=C2/C(C)=NN(c3cccc(Cl)c3)/C2=N/c2nc3ccccc3s2)ccc1O | > 100 µM | 
O=C(O)COc1ccccc1C(=O)Nc1ccccc1 | > 100 µM | 
COc1ccc(C2c3cn[nH]c3CC3CCCCC32)cc1 (stereo not drawn) | 73.2 µM | 
COc1ccc(C2OC(c3ccncc3)=NN2C)cc1F (stereo not drawn) | > 100 µM | 
COc1cc2c(cc1OC)C(C(c1ccccc1)c1ccccc1)N(C)CC2 (stereo not drawn) | > 100 µM | 
CCOC(=O)N1CCC(N[C@@H]2c3cc4c(cc3C(c3cc(OC)c(O)c(OC)c3)C3C(=O)OC[C@@H]32)OCO4)CC1 (stereo partly drawn) | 18.7 µM and > 25 µM | 1.46 µM and 4.12 µM
C[N+](C)([O-])CCOc1cc2c(c3ccccc13)-c1ccccc1C2=O | 44.1 µM | 
CCOC(=O)C1S/C(=N\C(=N)N[N+](=O)[O-])N=C1C (stereo not drawn) | > 100 µM | 
NS(=O)(=O)c1ccc(NC(=S)/N=C/C2=C(O)c3ccccc3C2=O)cc1 | > 100 µM | 
O=C1NC2c3c(I)sc(I)c3C(O)C2O1 (stereo not drawn) | > 100 µM | 
S=C1NC2=C(CSC/C2=C\c2cccc(Br)c2)C(c2cccc(Br)c2)N1 (stereo not drawn) | > 100 µM | 
CCCCCCCCCCCCCCCCNc1cccc2ccccc12 | > 100 µM | 
C=C(C(=O)OCC)C(=O)OCC | > 100 µM | 
O=C1OCC/C1=N/O | > 100 µM | 
CSC1=N/C(=C\c2ccc(C)cc2)C(=O)N1CN1CCCCC1 | > 100 µM | 
Cc1ccc(S(=O)(=O)n2c3c(c4ccccc42)CCN2C[C@H]([C@H](C)Br)CC[C@@H]32)cc1 | > 100 µM | 
